Laboratory results from patent publication EP0241232A1, “Isoxazolylethanol derivatives” (SHIONOGI SEIYAKU KABUSHIKI KAISHA, priority 1986, dated 1987).

Assays:
Candida albicans KE-2 [1] = experiment: Inhibition test against pseudomycelium formation of Candida albicans; assay type: cell-based; details: KE2, minimum effective concentration preventing typical pseudomycelium formation, Eagle-MEM + 20 % calf serum, 18 hours at 37 °C, read-out: Inhibitory Concentration of Pseudo-myselium Formation
Experimental: Candida albicans KE-2 was inoculated to Eagle-MEM medium (Nissan 2 made by Nissui Seiyaku, Ltd.) supplemented with 20 % calf serum so that its final inoculum of yeast cell might be 1 x 10^6 yeast cells per milliliter. The test compounds were added thereon in two fold dilution series. After incubation for 18 hours at 37 °C, the fungal growth in each drug concentration was smeared and fixed on a slide glass, and the presence or absence of the pseudomycelium formation was examined by a microscope following Giemsa staining. Minimum effective concentration was defined as the lowest concentration of the compound which prevented typical pseudomycelium formation.

Candida albicans KE-2 [2] = experiment: Therapeutic effect against experimental candidiasis in mice; assay type: in vivo; details: KE2, po, 120 h, mouse survival ratio on the 5th day after infection, Jcl-ICR female mouse, 50 mg/kg orally three times (0, 4, 24 hours)
Experimental: After Candida albicans KE-2 was incubated on Sabouraud's glucose agar at 28 °C for 48 hr., it was suspended in Sabouraud's glucose broth and the cells ([…]) were injected to a tail vein of Jcl-ICR female mouse (4 weeks age; weight : 18 - 20 g). A suspension of the test compound in 2 % gum arabic was orally administered three times, immediately after infection of the yeast ( 0 hour), after 4 hours and after 24 hours, as a dosage of 50 mg/kg. Non-treated group was used as control. Each eight mice per group was used in control group and treated group. All the mice in control group died within 48 hr. after infection. Therapeutic effect of the test compound was judged by mouse survival ratio on the 5th day after infection.

Puccinia coronata = experiment: Control by seed-soaking: crown rust in oats; assay type: in vivo
Experimental: (§1) The test compound was dissolved in 0.2 ml of acetone and suspended in demineralized distilled water containing a small amount of spreader, to a concentration of 500 ppm. The suspension was further diluted to one quarter dilution with demineralized distilled water (containing a small amount of spreader) to give a suspension in 125 ppm. All seeds of oats, wheat and cucumber were soaked in these suspensions at room temperature for an hour and then the seeds were air-dried.
(§2) The seeds as described above were sown in plastic pots (diameter : 9 cm). For rust and powdery mildews, the pots were kept in a glasshouse for 1 - 3 weeks until the seeds grew to young plants. The young oats (10 - 20 plants per pot) were inoculated by dusting with spores of Puccinia coronata, and the wheat (10 - 20 plants per pot) was also inoculated by spraying with spores of Erysiphe graminis f. sp. tritici, and the cucumber (1 plant per pot) was also inoculated by spraying with spore suspension of Sphaerotheca fuliginea. These inoculated plants were further kept in a glasshouse for 10 - 14 days until assessment. For damping-off, the treated seeds were sown in paper pots (diameter : 7.5 cm; depth : 6 cm) which contained soil infested with Rhizoctonia solani by mixing sterilized soil and pre-cultured fungus. Then the pots were kept in a humid glasshouse at 25 - 32 ^*C.
(§3) Damping-off was observed 15 days after sowing, and disease degree and control effect were obtained from the following equations. [formula] [formula] where diseased seedlings included damping-off and unemerged'seeds due to infection. For the foliar diseases, disease development was observed 10 - 14 days after inoculation of spores, and control effect was obtained by the following index.

[3] = test system: Erysiphe graminis f. sp. tritici; experiment: Control by seed-soaking: powdery mildew in wheat; assay type: in vivo
Experimental: as §1, §2, §3

Rhizoctonia solani [4] = experiment: Control by seed-soaking: Rhizoctonia damping-off in cucumber; assay type: in vivo; details: 360 h, seed-soaking, observed 15 days after sowing, control effect by equation, read-out: Control Index Rhizoctonia Damping-Off in Cucumber
Experimental: as §1, §2, §3

Sphaerotheca fuliginea [5] = experiment: Control by seed-soaking: powdery mildew in cucumber; assay type: in vivo
Experimental: as §1, §2, §3

Sphaerotheca fuliginea [6] = experiment: Control of cucumber powdery mildew by foliar spray; assay type: in vivo; details: observed 10 days after inoculation; for Control Index Preventive Effect: inoculation 24 hr. after application; for Control Index Curative Effect: inoculation 24 hr. before application
Experimental: The test compound was dissolved in a small amount of acetone and suspended in demineralized distilled water containing a spreader, to a concentration of 7.8 ppm and 2.0 ppm. Young cucumber plants (c.v. Tsukuba-Shiroibo) of 2-leaf stage grown in pots were sprayed sufficiently with the suspension.
Spores of Sphaerotheca fuliginea cultured in cucumber plants were collected and suspended in distilled water. Inoculation was made by spraying with the spore suspension to the test plant of 24 hr. after application of the test compound (preventive control) or 24 hr. before application (curative control).
Development of the disease was observed 10 days after inoculation and control index was obtained as described in Experiment 3.

Rhizoctonia solani [7] = experiment: Control of cucumber damping-off by soil drench; assay type: in vivo; details: 30 ml per cup, judged 15 days after inoculation
Experimental: as §3
The test compound was dissolved in a small amount of acetone and suspended in demineralized distilled water containing a spreader, to a concentration of 125 ppm and 31 ppm. The soil sterilized by an autoclave was put into paper cups (diameter : 7.5 cm; depth : 6 cm) and cucumber seeds (c.v. : Matsukaze) were sown in the cups (10 seeds/pot). Then the soil surface was covered with the following soil containing pathogen. And then 30 ml of the formation of the test compound was applied to the soil in the cup.
Rhizoctonia solani incubated in a bran medium at 28 °C for 5 days was put into sterile soil and cultured for 24 hr. The inoculated soil was diluted with sterile soil to about 4 times volume. The soil surface in the cups containing cucumber seeds was covered with the soil containing Rhizoctonia solani.
Control effect was judged 15 days after inoculation and control percent was obtained as described in Experiment 3.

| Structure (SMILES) | minimal effective concentration (Candida albicans KE-2 [1]) [µg/mL] | responders at 50 mg/kg (Candida albicans KE-2 [2]) [%] | Control Index Crown Rust in Oats (Puccinia coronata; 125 ppm) | Control Index Crown Rust in Oats (Puccinia coronata; 500 ppm) | Control Index Powdery Mildew in Wheat ([3]; 125 ppm) | Control Index Powdery Mildew in Wheat ([3]; 500 ppm) | pest or weed control at 125 ppm (Rhizoctonia solani [4]) [%] | pest or weed control at 500 ppm (Rhizoctonia solani [4]) [%] | Control Index Powdery Mildew in Cucumber (Sphaerotheca fuliginea [5]; 125 ppm) | Control Index Powdery Mildew in Cucumber (Sphaerotheca fuliginea [5]; 500 ppm) | Control Index Preventive Effect (Sphaerotheca fuliginea [6]; foliar spray 2.0 ppm) | Control Index Curative Effect (Sphaerotheca fuliginea [6]; foliar spray 2.0 ppm) | Control Index Preventive Effect (Sphaerotheca fuliginea [6]; foliar spray 7.8 ppm) | Control Index Curative Effect (Sphaerotheca fuliginea [6]; foliar spray 7.8 ppm) | Control (Rhizoctonia solani [7]; soil drench 31 ppm) [%] | Control (Rhizoctonia solani [7]; soil drench 125 ppm) [%] |
| --- | --- | --- | --- | --- | --- | --- | --- | --- | --- | --- | --- | --- | --- | --- | --- | --- |
| OC(Cn1cncn1)(c1ccc(F)cc1)c1ccon1 (stereo not drawn) [Ia - 1, 1-(4-Fluorophenyl)-1-(isoxazol-3-yl)-2-(1H-1,2,4-triazol-l-yl)ethanol] | 0.31 | 87.5 | 50 (Leaves covered with symptom between 46 % and 65 % area) | 90 (Leaves covered with symptom between 4 % and 15 % area) | 70 (Leaves covered with symptom between 16 % and 45 % area) | 100 | 71 | 90 | 0 (Leaves covered with symptom more than 66 %) | 70 (Leaves covered with symptom between 16 % and 45 % area) | – | – | – | – | – | – |
| OC(Cn1cncn1)(c1ccon1)c1ccc(F)cc1F (stereo not drawn) [Ia - 4] | 0.16 | 100 | 50 (Leaves covered with symptom between 46 % and 65 % area) | 97 (Leaves covered with symptom less than 3 % area) | 50 (Leaves covered with symptom between 46 % and 65 % area) | 100 | 53 | 86 | 50 (Leaves covered with symptom between 46 % and 65 % area) | 70 (Leaves covered with symptom between 16 % and 45 % area) | 97 (Leaves covered with symptom less than 3 % area) | 100 | 100 | 100 | 100 | 100 |
| Cc1cc(C(O)(Cn2cncn2)c2ccc(Cl)cc2)no1 (stereo not drawn) [Ia - 5] | 0.02 | 87.5 | 50 (Leaves covered with symptom between 46 % and 65 % area) | 97 (Leaves covered with symptom less than 3 % area) | 70 (Leaves covered with symptom between 16 % and 45 % area) | 100 | 66 | 94 | 0 (Leaves covered with symptom more than 66 %) | 70 (Leaves covered with symptom between 16 % and 45 % area) | 70 (Leaves covered with symptom between 16 % and 45 % area) | 97 (Leaves covered with symptom less than 3 % area) | 97 (Leaves covered with symptom less than 3 % area) | 100 | – | – |
| OC(Cn1cncn1)(c1ccon1)c1ccc(Cl)cc1Cl (stereo not drawn) [Ia - 3] | 0.02 | 100 | 97 (Leaves covered with symptom less than 3 % area) | 100 | 70 (Leaves covered with symptom between 16 % and 45 % area) | 100 | 100 | 94 | 50 (Leaves covered with symptom between 46 % and 65 % area) | 70 (Leaves covered with symptom between 16 % and 45 % area) | 100 | 100 | 100 | 100 | 100 | 100 |
| OC(Cn1cncn1)(c1ccc(Cl)cc1)c1ccon1 (stereo not drawn) [Ia - 2] | 0.04 | 100 | 70 (Leaves covered with symptom between 16 % and 45 % area) | 100 | 100 | 100 | 93 | 100 | 70 (Leaves covered with symptom between 16 % and 45 % area) | 90 (Leaves covered with symptom between 4 % and 15 % area) | 97 (Leaves covered with symptom less than 3 % area) | 100 | 100 | 100 | 100 | 100 |
| Cc1cc(C(O)(Cn2cncn2)c2ccc(F)cc2F)no1 (stereo not drawn) [Ia - 8] | 0.08 | 50 | – | – | – | – | 74 | 94 | – | – | 90 (Leaves covered with symptom between 4 % and 15 % area) | 90 (Leaves covered with symptom between 4 % and 15 % area) | 97 (Leaves covered with symptom less than 3 % area) | 100 | – | – |
| CCc1cc(C(O)(Cn2cncn2)c2ccc(F)cc2F)no1 (stereo not drawn) [Ia - 10] | 0.08 | 50 | – | – | – | – | – | – | – | – | – | – | – | – | – | – |
| CCCCc1cc(C(O)(Cn2cncn2)c2ccc(F)cc2F)no1 (stereo not drawn) [Ia - 11] | 0.04 | 50 | – | – | – | – | – | – | – | – | – | – | – | – | – | – |
